This is an account of results in patent US10150780B2, “Spirocyclic heterocycle compounds useful as HIV integrase inhibitors” (Merck Sharp & Dohme Corp., priority 2014, dated 2018).

The experiment deals with HIV-1 (NL4-3 strain). Put plainly: Assay for Inhibition of HIV Replication (VIKING), infected MT4-GFP cells. Type of experiment: cell-based. To be noted: infected cells at 48 h / 24 h. On the procedure: MT4-GFP cells (250,000 cells/ml) were bulk-infected with HIV-1 (NL4-3 strain) at low multiplicity of infection (MOI) in RPMI+10% FBS for 24 hours. Cells were then washed once in RPMI+10% FBS and resuspended RPMI+0% or +100% normal human serum (NHS). Test compounds were serial-diluted in DMSO on ECHO. The infected MT4-GFP cells were added to a 384-well poly-D-lysine coated black plate with clear bottom in which the diluted test compounds were placed. The cells were seeded at 8,000 cells per well and the final DMSO concentration was 0.4%. The infected cells (Green GFP cells) were quantified at both 24 and 48 hours post incubation using Acumen eX3. Viral reproductive ratio (R0) was determined using the number of infected cells at 48 hours divided by the number of infected cells at 24 hours. Percent viral growth inhibition was calculated by [1−(R−Rtripledrug)/(RDMSO−Rtripledrug)]*100.

[1] abbreviates: Human immunodeficiency virus 1, NL43, 48 h, MT4-GFP cells infected with HIV-1 NL4-3, RPMI + 0% normal human serum, read-out: VIKING IP50 (nM) with 0% NHS.
The mark [2] stands for this setting: MT4-GFP cells infected with HIV-1 NL4-3, RPMI + 100% normal human serum, read-out: VIKING IP50 (nM) with 100% NHS.
Setting [3] is: MT4-GFP cells infected with HIV-1 NL4-3, RPMI + 0% normal human serum, read-out: VIKING IP50 (nM) with 0% NHS.
[4] abbreviates: Human immunodeficiency virus 1, NL43, MT4-GFP cells infected with HIV-1 NL4-3, RPMI + 100% normal human serum, read-out: VIKING IP50 (nM) with 100% NHS.

Where two headings read alike, the source gives them in different places. Some results are limits rather than exact numbers.

Consider `CN1CCCN2C(=O)c3c(O)c(=O)c(C(=O)NCc4cccc(Cl)c4F)cn3C3(CC3)C12` (single isomer, unassigned) [Compound 14], for which the IC50 was 1 nM under setting [1] and 2340 nM under setting [2].
Consider `O=C(NCc1ccc(F)cc1F)c1cn2c(c(O)c1=O)C(=O)N1CCCOC1C21CC1` (single isomer, unassigned) [Compound 4], for which the IC50 turned out to be 0.5 nM under setting [3] and 285 nM under setting [2].
The like results for `O=C(NCc1cccc(Cl)c1F)c1cn2c(c(O)c1=O)C(=O)N1CCOC1C21CC1` (single isomer, unassigned) [Compound 11] were, in that order, 0.4 nM and more than 8000 nM.
Taken in the same sequence, the figures for `O=C(NCc1cccc(Cl)c1F)c1cn2c(c(O)c1=O)C(=O)N1CCCCOC1C21CC1` (single isomer, unassigned) [Compound 13] were 1.3 nM and 4100 nM.
`CN(C)N1CC2(COC2)n2cc(C(=O)NCc3ccc(F)cc3F)c(=O)c(O)c2C1=O` [Compound 7]: the IC50 by setting is: under setting [1], 4 nM; under setting [4], 1280 nM.
Consider `O=C(NCc1cccc(Cl)c1F)c1cn2c(c(O)c1=O)C(=O)N1CCOC1C21CC1` (single isomer, unassigned) [Compound 10], for which the IC50 amounted to 0.4 nM under setting [1] and 3900 nM under setting [2].
On to `COC1N(N(C)C)C(=O)c2c(O)c(=O)c(C(=O)NCc3ccc(F)cc3F)cn2C12CC2` (single isomer, unassigned) [Compound 2], for which the IC50 was 1.7 nM under setting [3] and 153 nM under setting [2].
Take `O=C(NCc1cccc(Cl)c1F)c1cn2c(c(O)c1=O)C(=O)N1CCCOC1C21CC1` (single isomer, unassigned) [Compound 5]: the IC50 was 0.8 nM under setting [1] and more than 8000 nM under setting [2].
The like results for `O=C(NCc1ccc(F)cc1F)c1cn2c(c(O)c1=O)C(=O)N1CCCOC1C21CC1` (single isomer, unassigned) [Compound 3] were, in that order, 0.6 nM and 3370 nM.
In the case of `CN1CCCN2C(=O)c3c(O)c(=O)c(C(=O)NCc4cccc(Cl)c4F)cn3C3(CC3)C12` (single isomer, unassigned) [Compound 15], the IC50 under setting [3] was 0.6 nM and the IC50 under setting [2] turned out to be 71.5 nM.
Turning to `COC1N(N(C)C)C(=O)c2c(O)c(=O)c(C(=O)NCc3ccc(F)cc3F)cn2C12COC2` (stereo not drawn) [Compound 9], the IC50 was found to be 7 nM under setting [1] and 235 nM under setting [4].
Taken in the same sequence, the figures for `CN(C)N1CC2(CCOCC2)n2cc(C(=O)NCc3ccc(F)cc3F)c(=O)c(O)c2C1=O` [Compound 8] were 19 nM and 1510 nM.
With `O=C(NCc1cccc(Cl)c1F)c1cn2c(c(O)c1=O)C(=O)N1CCCOC1C21CC1` (single isomer, unassigned) [Compound 6], the IC50 was 0.6 nM under setting [3] and 505 nM under setting [2].
Regarding `COC1N(N(C)C)C(=O)c2c(O)c(=O)c(C(=O)NCc3ccc(F)cc3F)cn2C12CC2` (single isomer, unassigned) [Compound 1], the IC50 runs as follows: under setting [1], 1.9 nM; under setting [2], more than 8000 nM.
On to `O=C(NCc1cccc(Cl)c1F)c1cn2c(c(O)c1=O)C(=O)N1CCCCOC1C21CC1` (single isomer, unassigned) [Compound 12], for which the IC50 runs as follows: under setting [3], 0.5 nM; under setting [2], 92.3 nM.
